Consider one compound from patent EP4624497A1, “PHOSPHOEN[…] PROBE, PREPARATION METHOD THEREFOR AND APPLICATION THEREOF” (priority 2022, dated 2024).

The structures appear in SMILES notation.

What all share (test): phosphoenolpyruvate titration of purified optical probe (fluorescence ratio)
Format in all cases: binding
Conditions in all cases: phosphoenolpyruvate 0 to 10 mM, purified probe treated 10 minutes, ex 420/485 nm, em 528 nm

For experiment [1], the target named is T1, Thermus thermophilus TtPFK optical probe 254/255-TtPFK-cpYFP variant, TtPFK V54Q/I253K/Q254L/R255L/G256F, cpYFP Y1S (Thermus thermophilus, UniProt P21777, form not given/G256F/I253K/Q254L/R255L/V54Q).
T1 construct: His-tag; made in house; host or cells: E. coli BL21 (DE3)
The method, then:
(§1) • 1. The expression vectors (for example, a phosphoenolpyruvate optical probe expression vector based on pCDF.) were transformed into BL21 (DE3) cells, incubated inverted overnight, and the clones were picked from the plates into 250 mL Erlenmeyer flasks, placed in a shaker at 37 °C and incubated at 220 rpm to OD=0.4-0.8, then 1/1000 (V/V) of IPTG (1 M) was added to induce expression at 18 °C for 24-36 hours. • 2. Upon completion of inducible expression, cells were harvested by centrifugation at 4000 rpm for 30 min, resuspended in 50 mM phosphate buffer and disrupted ultrasonically until the broth were clear, centrifuged at 9600 rpm at 4 °C for 20 min. • 3. The centrifuged supernatant was used to obtain protein by purification through a self-packed nickel column affinity chromatography column, and the protein obtained after nickel column affinity chromatography was further used to obtain protein dissolved in 100 mM HEPES buffer (pH 7.4). • 4. After purified proteins were subjected to SDS-PAGE, probes were diluted to a protein solution having a final concentration of 0.2-5 µM using assay buffer (100 mm HEPES, 100 mM NaCl, pH 7.4). Phosphoenolpyruvate was formulated as a stock solution at a final concentration of 50 mM with the assay buffer (100 mM HEPES, 100 mM NaCl, pH 7.4). • 5. 100 µl 1 µM of protein solution was taken, incubated at 37 °C for 10 min, phosphoenolpyruvate was added for titration, and the fluorescence intensity of 528 nm emission after 420 nm and 485 nm fluorescence excitation of the protein was measured. The fluorescence excitation and emission determination of the samples were done using a multifunctional fluorescence microplate reader. • 6. 100 µl 1 µM of protein solution was taken, incubated at 37 °C for 10 min, and phosphoenolpyruvate was added to determine the absorption and fluorescence spectra of the proteins. Determination of the absorption and fluorescence spectra of the samples was done by spectrophotometer and spectrofluorometer.
(§2) For the 254/255-TtPFK-cpYFP obtained in Example 2 and the 254/255-TtPFK-I253G/Q254L/R255L/G256F-cpYFP-Y1P, 254/255-TtPFK-I253K/Q254L/R255L/G256F-cpYFP-Y1S and 254/256-TtPFK-I253Q/Q254L/G256V/G257L-cpYFP-Y1T/N246F optical probes obtained in Example 6, amino acid were mutated at positions R21, R25, V54, R55, V57, A58, N59, I60, I61, R155, G186, R212, G213, K214, K215, S216 and L320 in the phosphoenolpyruvate binding pocket, and at positions R72, R163, R172 and R246 in the ATP binding pocket to adjust the affinity of the phosphoenolpyruvate optical probe to phosphoenolpyruvate and the substrate specificity. The probes were linearized by reverse PCR, and the sequences of the mutation sites were introduced into the primers. The obtained PCR products were subjected to homologous recombination to obtain plasmids containing the above site mutations. The mutant plasmids were transformed into BL21 (DE3) for induced expression, and the mutant probe proteins were purified for the phosphoenolpyruvate response test. The detection signal of the fusion fluorescent protein containing 2 mM phosphoenolpyruvate was divided by the detection signal of the fusion fluorescent protein without phosphoenolpyruvate. […]

Experiment [2] has as its target T2, Thermus thermophilus TtPFK optical probe 254/256-TtPFK-cpYFP variant, TtPFK N59D/I253Q/Q254L/G256V/G257L, cpYFP Y1T/N246F (Thermus thermophilus, UniProt P21777, form not given/G256V/G257L/I253Q/N59D/Q254L).
T2 construct: His-tag; made in house; host or cells: E. coli BL21 (DE3)
The method, then: as §1, §2

The target in experiment [3] is T3, Thermus thermophilus TtPFK optical probe 254/256-TtPFK-cpYFP variant, TtPFK V54Q/I253Q/Q254L/G256V/G257L, cpYFP Y1T/N246F (Thermus thermophilus, UniProt P21777, form not given/G256V/G257L/I253Q/Q254L/V54Q).
T3 construct: the numbering corresponds to the full length of the phosphoenolpyruvate-sensitive polypeptide; His-tag; made in house; host or cells: E. coli BL21 (DE3)
Here is the method: as §1, §2

Experiment [4] concerns the target T4, Thermus thermophilus TtPFK optical probe 254/255-TtPFK-cpYFP variant, TtPFK V54Q/I253G/Q254L/R255L/G256F, cpYFP Y1P (Thermus thermophilus, UniProt P21777, form not given/G256F/I253G/Q254L/R255L/V54Q).
T4 construct: the numbering corresponds to the full length of the phosphoenolpyruvate-sensitive polypeptide; His-tag; made in house; host or cells: E. coli BL21 (DE3)
Here is the method:
as §1, §2

Experiment [5] addresses T5, Thermus thermophilus TtPFK optical probe 254/256-TtPFK-cpYFP variant, TtPFK K215E/I253Q/Q254L/G256V/G257L, cpYFP Y1T/N246F (Thermus thermophilus, UniProt P21777, form not given/G256V/G257L/I253Q/K215E/Q254L).
T5 construct: the numbering corresponds to the full length of the phosphoenolpyruvate-sensitive polypeptide; His-tag; made in house; host or cells: E. coli BL21 (DE3), pCDF vector
Here is the method:
as §1, §2

The target of experiment [6] is T6, Thermus thermophilus TtPFK optical probe 254/256-TtPFK-cpYFP variant, TtPFK S216L/I253Q/Q254L/G256V/G257L, cpYFP Y1T/N246F (Thermus thermophilus, UniProt P21777, form not given/G256V/G257L/I253Q/Q254L/S216L).
T6 construct: the numbering corresponds to the full length of the phosphoenolpyruvate-sensitive polypeptide; His-tag; made in house; host or cells: E. coli BL21 (DE3), pCDF vector
The method, then: as §1, §2

Experiment [7] deals with T7, Thermus thermophilus TtPFK optical probe 254/255-TtPFK-cpYFP variant, TtPFK V54K/I253G/Q254L/R255L/G256F, cpYFP Y1P (Thermus thermophilus, UniProt P21777, form not given/G256F/I253G/Q254L/R255L/V54K).
T7 construct: the numbering corresponds to the full length of the phosphoenolpyruvate-sensitive polypeptide; His-tag; made in house; host or cells: E. coli BL21 (DE3)
The method, then: as §1, §2

Experiment [8] has as its target T8, Thermus thermophilus TtPFK optical probe 254/255-TtPFK-cpYFP variant, TtPFK N59H/I253G/Q254L/R255L/G256F, cpYFP Y1P (Thermus thermophilus, UniProt P21777, form not given/G256F/I253G/N59H/Q254L/R255L).
T8 construct: the numbering corresponds to the full length of the phosphoenolpyruvate-sensitive polypeptide; His-tag; made in house; host or cells: E. coli BL21 (DE3)
The method, then: as §1, §2

T5 sequence (P21777 other isoform, or with tags, fused parts or gaps K215E, form open): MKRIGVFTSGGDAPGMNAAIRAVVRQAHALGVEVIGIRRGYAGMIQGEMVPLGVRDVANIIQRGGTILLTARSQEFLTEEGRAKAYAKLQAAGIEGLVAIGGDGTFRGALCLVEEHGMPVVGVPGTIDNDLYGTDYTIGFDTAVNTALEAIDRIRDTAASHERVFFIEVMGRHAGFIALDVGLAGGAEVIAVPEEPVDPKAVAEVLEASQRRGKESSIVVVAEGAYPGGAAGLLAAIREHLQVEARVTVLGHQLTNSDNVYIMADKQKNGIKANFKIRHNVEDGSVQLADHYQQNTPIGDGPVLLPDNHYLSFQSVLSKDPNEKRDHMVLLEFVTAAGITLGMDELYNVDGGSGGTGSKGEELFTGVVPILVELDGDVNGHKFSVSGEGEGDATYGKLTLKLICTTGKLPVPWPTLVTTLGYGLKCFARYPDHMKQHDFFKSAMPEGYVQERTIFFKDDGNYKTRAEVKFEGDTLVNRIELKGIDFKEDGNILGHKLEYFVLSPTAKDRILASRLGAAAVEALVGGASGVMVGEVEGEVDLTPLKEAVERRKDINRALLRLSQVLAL
T3 sequence (P21777 other isoform, or with tags, fused parts or gaps V54Q, form open): as the sequence (P21777 other isoform, or with tags, fused parts or gaps K215E, form open) above, with V54Q, E215K counted along it
T1 sequence (P21777 other isoform, or with tags, fused parts or gaps V54Q, form open): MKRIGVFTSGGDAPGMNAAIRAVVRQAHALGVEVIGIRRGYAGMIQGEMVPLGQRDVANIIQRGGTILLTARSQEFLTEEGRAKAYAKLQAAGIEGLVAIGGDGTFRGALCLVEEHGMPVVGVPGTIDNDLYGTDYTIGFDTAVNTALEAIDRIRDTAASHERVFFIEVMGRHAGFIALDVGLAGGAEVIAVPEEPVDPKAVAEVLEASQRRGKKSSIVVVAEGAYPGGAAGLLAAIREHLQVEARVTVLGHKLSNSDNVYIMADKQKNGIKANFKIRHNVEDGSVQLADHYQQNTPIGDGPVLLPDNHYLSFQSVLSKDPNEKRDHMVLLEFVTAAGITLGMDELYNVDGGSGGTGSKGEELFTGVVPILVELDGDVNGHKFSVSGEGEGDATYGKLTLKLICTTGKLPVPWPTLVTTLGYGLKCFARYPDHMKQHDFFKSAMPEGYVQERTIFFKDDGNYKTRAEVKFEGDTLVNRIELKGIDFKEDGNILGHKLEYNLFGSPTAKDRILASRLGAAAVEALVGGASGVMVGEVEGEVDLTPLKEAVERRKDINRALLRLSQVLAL
T7 sequence (P21777 other isoform, or with tags, fused parts or gaps V54K, form open): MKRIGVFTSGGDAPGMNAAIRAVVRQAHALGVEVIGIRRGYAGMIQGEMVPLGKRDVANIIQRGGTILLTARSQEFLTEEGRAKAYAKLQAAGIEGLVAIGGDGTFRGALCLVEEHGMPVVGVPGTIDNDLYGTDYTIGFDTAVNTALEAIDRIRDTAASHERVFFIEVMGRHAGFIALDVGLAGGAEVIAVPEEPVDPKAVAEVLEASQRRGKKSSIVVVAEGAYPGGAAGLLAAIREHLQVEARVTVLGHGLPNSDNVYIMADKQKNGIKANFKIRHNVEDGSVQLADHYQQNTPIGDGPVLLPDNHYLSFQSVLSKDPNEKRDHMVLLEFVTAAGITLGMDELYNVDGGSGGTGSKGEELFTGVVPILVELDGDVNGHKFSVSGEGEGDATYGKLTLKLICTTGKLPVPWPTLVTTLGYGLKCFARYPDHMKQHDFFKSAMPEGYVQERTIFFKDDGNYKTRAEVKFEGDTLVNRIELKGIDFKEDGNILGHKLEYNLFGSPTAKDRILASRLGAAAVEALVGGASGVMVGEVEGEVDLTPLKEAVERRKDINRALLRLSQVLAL
T2 sequence (P21777 other isoform, or with tags, fused parts or gaps N59D, form open): as the sequence (P21777 other isoform, or with tags, fused parts or gaps K215E, form open) above, with N59D, E215K counted along it
T8 sequence (P21777 other isoform, or with tags, fused parts or gaps N59H, form open): as the sequence (P21777 other isoform, or with tags, fused parts or gaps V54K, form open) above, with K54V, N59H counted along it
T4 sequence (P21777 other isoform, or with tags, fused parts or gaps V54Q, form open): as the sequence (P21777 other isoform, or with tags, fused parts or gaps V54K, form open) above, with K54Q counted along it
T6 sequence (P21777 other isoform, or with tags, fused parts or gaps S216L, form open): as the sequence (P21777 other isoform, or with tags, fused parts or gaps K215E, form open) above, with E215K, S216L counted along it

The Kd is the constant that tells how readily two partners part at equilibrium. Take `C=C(OP(=O)(O)O)C(=O)O` [phosphoenolpyruvate, Phosphoenolpyruvate]: the Kd was found to be 328 µM in experiment [1]; 374 µM in experiment [2]; 281 µM in experiment [3]; 769 µM in experiment [4]; 249 µM in experiment [5]; 1.39 µM in experiment [6]. Further, the Kd in experiment [7] was 267 µM; in experiment [8], 178 µM.
